Source: paper PMC7932537, “Quantitative profiling of protease specificity” (PLoS Computational Biology, 2021)

What was measured:
[1] = test system: MMP-2; experiment: Substrate phage display with NGS: relative probability (RP) of P3-P1' tetramer clusters; format: biochemical, human; conditions: for avg_RP: MMP2 - no binning; for relative probability (RP) of matching tetramer: P3-P1' tetramer matching the MS detected MMP2 cleavage sequence, RP_above_4.5; for MMP2 relative probability (RP): MMP2 tetramers from unique substrates, unrounded values; for corresponding MMP2 relative probability (RP): MMP9 tetramers from unique substrates, RP of same tetramer for MMP2
[2] = test system: MMP-9; experiment: as above; format: biochemical, human; conditions: for corresponding MMP9 relative probability (RP): MMP2 tetramers from unique substrates, RP of same tetramer for MMP9; for MMP9 relative probability (RP): MMP9 tetramers from unique substrates, unrounded values
[3] = RP of the P3-P1' tetramer cluster contained in the hexamer, 200 nM MMP-2, 2 h, 37°C, two rounds of selection
[4] = MMP9, RP of the P3-P1' tetramer contained in the hexamer substrate (substrate phage display, NGS)
[5] = average relative probability of the P3-P1' tetramer, redundant tetramers have been averaged out
[6] = MMP2, RP of matching P3-P1' tetramer, common set of MMP2-9 selectome, RP above KL threshold
[7] = RP of matching tetramer, common MMP2-9 selectome
[8] = MMP9, RP of matching P3-P1' tetramer, common set of MMP2-9 selectome
[9] = MMP9, RP of the P3-P1' tetramer matching the MS detected cleavage, RP above 4.7, substrate phage display with NGS
[10] = RP of matching tetramer, common MMP2-9 selectome, RP above KL threshold
[11] = RP of the P3-P1' tetramer, MMP2 substrate phage display/NGS, tetramers of physiologic MEROPS substrates common to MMP2 and MMP9
[12] = RP of the P3-P1' tetramer, MMP9 substrate phage display/NGS, tetramers of physiologic MEROPS substrates common to MMP2 and MMP9
[13] = RP according to MMP2, P3-P1' tetramer of unique physiologic MMP2 substrates from MEROPS
[14] = average relative probability of the tetramer, redundant tetramers averaged out

Row | Substance | relative probability (RP) [1, 3] | relative probability (RP) [2, 4] | relative probability (RP) (acc.to MMP2) [1, 6] | relative probability (RP) of matching tetramer [1] | relative probability (RP) (acc.to MMP2) [1, 7] | relative probability (RP) (acc.to MMP9) [2, 8] | relative probability (RP) [2, 9] | relative probability (RP) (acc.to MMP9) [2, 10] | further results
1 | PKGYQG | 30.7046 | 46.8538 |  |  |  |  |  |  | 
2 | PLNV |  |  | 24.93 | 24.93 | 24.93 | 43.38 | 43.38 | 43.38 | avg_RP [1, 5]: 24.9266
3 | LSWL |  |  | 25.56 | 25.56 | 25.56 | 20.21 | 20.21 | 20.21 | 
4 | PLTL |  |  | 24.26 | 24.26 | 24.26 | 41.2 | 41.2 | 41.2 | avg_RP [1, 5]: 24.2603
5 | KSPQSY | 26.1515 | 42.416 |  |  |  |  |  |  | 
6 | GKPVSM | 30.0644 | 41.2029 |  |  |  |  |  |  | 
7 | PSGD |  |  |  |  |  |  |  |  | relative probability (RP) (acc.to MMP2) [1, 11]: 0.16; relative probability (RP) (acc.to MMP9) [2, 12]: 0.48
8 | YSNI |  |  |  |  |  |  |  |  | avg_RP [1, 5]: 14.6847; MMP2 relative probability (RP) [1]: 14.6847; Relative probability (RP) rank [1, 13]: 3195; relative probability (RP) [1, 13]: 14.68; corresponding MMP9 relative probability (RP) [2]: 0.05486
9 | VYHQ |  |  |  |  |  |  |  |  | corresponding MMP2 relative probability (RP) [1]: 13.6887; MMP9 relative probability (RP) [2]: 0.1039
10 | PGEI |  |  | 14.72 | 14.72 | 14.72 | 12.83 | 12.83 | 12.83 | 
11 | PPPL |  |  | 13.03 | 13.03 | 13.03 | 14.18 | 14.18 | 14.18 | 
12 | AINI |  |  | 8.5 | 8.5 | 8.5 | 14.08 | 14.08 | 14.08 | 
13 | LPKPLR | 33.5622 | 48.2599 |  |  |  |  |  |  | 
14 | PRFL |  |  | 28.44 | 28.44 | 28.44 | 42.45 | 42.45 | 42.45 | avg_RP [1, 14]: 28.4443
15 | KSEL |  |  |  |  |  |  |  |  | MMP2 relative probability (RP) [1]: 10.4091; Relative probability (RP) rank [1, 13]: 4754; relative probability (RP) [1, 13]: 10.41; corresponding MMP9 relative probability (RP) [2]: 0.2037
16 | MSPANI | 33.5547 | 46.3162 |  |  |  |  |  |  | 
17 | AAAI |  |  | 25.49 | 25.49 |  | 15.73 |  |  | 
18 | AAAM |  |  | 23.42 | 23.42 |  | 23.49 |  |  | 
19 | PEAQ |  |  |  |  |  |  |  |  | corresponding MMP2 relative probability (RP) [1]: 6.464; MMP9 relative probability (RP) [2]: 2.403
20 | NEGL |  |  |  |  |  |  |  |  | relative probability (RP) (acc.to MMP2) [1, 11]: 0.16; relative probability (RP) (acc.to MMP9) [2, 12]: 0
21 | PEAI |  |  |  |  |  |  |  |  | relative probability (RP) (acc.to MMP2) [1, 11]: 22.52; relative probability (RP) (acc.to MMP9) [2, 12]: 36.36
22 | PRAV |  |  | 28.34 | 28.34 | 28.34 | 40.85 | 40.85 | 40.85 | avg_RP [1, 14]: 28.3444
23 | EVPQAL | 34.4508 | 48.457 |  |  |  |  |  |  | 
24 | KSPSRL | 31.7732 | 39.8157 |  |  |  |  |  |  | 
25 | DGPVSF | 24.4524 | 25.1636 |  |  |  |  |  |  | 
